Laboratory results reported in patent US20090270363A1, “2-Aryl- and 2-Heteroarylthiazolyl Compounds, Methods for Their Preparation and Use Thereof” (Wyeth, priority 2008, published 2009).

Experiments:
[1] = tested on: HCT116 cells (Securin+/+, securin parental, HCT116 FB); assay: Growth inhibition (sulforhodamine B, 5 days) of securin parental cells; type: cell-based; conditions: Homo sapiens, HCT-116, 120 h, SRB
Description: (§1) IC50 analysis was performed for selected fused bicyclic 2-aryl or 2-heteroarylthiazolyl compounds that were tested on HCT116 cells and Securin “knock out” cell lines.
(§2) Cell Culture—HCT116 and securin “knock out” cells. HCT116 and securin “knock out” cells (D8 and F3) were grown in RPMI+5% fetal bovine serum and gentamycin. They were maintained in a humidified 37° C. incubator with 5% CO2. Since the securin “knock out” cells have active chromosomal instability, cells were used at a low passage number of 2-13 passages. At or before passage 13 a new vial of cells was thawed and used for the screen. Cell seeding—HCT116 cells and securin “knock out” cells were trypsinized and suspended in RPMI+5% FBS at a density of 27,000 cells/mL. HCT116 and securin “knock out” cells were seeded separately in wells of a 96-well plate (Falcon Cat # 35-3872) at a cell density of 4000 cells per well. Cells were seeded in 150 μL of RPMI media containing 5% FBS and gentamycin. Cell seeding was performed under aseptic conditions. Cells were allowed to attach and grow overnight in a humidified 37° C. incubator.
(§3) Compound Dilution and Dispensation. A series of stock solutions, 10 mg/mL of fused bicyclic 2-aryl- or 2-heteroarylthiazolyl compounds to be tested, were brought to room temperature. The compounds were diluted 1:50 in RPMI+5% FBS (Highest concentration 200 μg/mL). The compounds were then serially diluted 1:3 across a deep-well titration plate resulting in final concentrations in the plate of 200, 66.7, 22.2, 7.4, 2.4, 0.8, 0.27, 0.091, 0.03, 0.01, and 0.0034 μg/mL with one well left without a compound. 50 μL of this dilution series was added to the 150 μL of cells to result in a final concentration of compound in with the cells of 50, 16.6, 5.5, 1.8, 0.6, 0.2, 0.068, 0.023, 0.0076, 0.0025, and 0.00084 μg/mL. The dilution and addition of compounds to the plates is performed using a Multimek 96 Robot (Beckman Coulter).
(§4) Incubation and analysis. After dosing, the cells in the 96 well plates were returned to the humidified 37° C. incubator. The compounds remained on the cells for 5 days. After 5 days, the cells were fixed to the plates with the addition of 50 μL of 50% (vol/vol) Trichloro Acetic Acid ([…]). The cells were fixed at 4° C. for 1 hour. The plates were washed 5 times in distilled water and allowed to dry. The cells were stained with 0.4% sulforhodamine B (Sigma) in 1% acetic acid. The cells were stained for 15 minutes at room temperature. The plates were then washed 3 times in 1% acetic acid. The plates were dried and the dye was solubilized in 10 mM Tris at pH 8.0. The plates were read on the Absorbence 560 setting on a Victor^2 V Model 1420 Multilabel HTS counter (Perkin Elmer).
(§5) Analysis of Results—IC50 data. Absorbence data was read off of the Victor and was converted to a percentage of the control (untreated) values. IC50 values were graphed and the point at which a 50% inhibition of the control level was determined. […] If the model was not able to determine an IC50, the IC50 was assigned to the lowest concentration that gives a 50% or greater decrease in absorbence compared to control levels. If the calculated IC50 value for a cell line exceeds the top concentration for the assay (typically 50 μg/mL), the assay was scored as >50.
(§6) Selectivity Ratio. The Selectivity Ratio is the ratio of IC50s between the parent cell line and the knock out cell line and is always a positive number and is typically an integer.

[2] = tested on: securin "knock out" cells D8 (Securin-/-); assay: Growth inhibition (sulforhodamine B, 5 days) of securin knock out cells D8; type: cell-based; conditions: for IC50: 120 h, securin knock out D8 cells, 5 days, SRB; for Selectivity Ratio D8: IC50 HCT116 / IC50 securin KO D8
Description: as §1, §2, §3, §4, §5, §6

[3] = tested on: securin "knock out" cells F3 (Securin-/-); assay: Growth inhibition (sulforhodamine B, 5 days) of securin knock out cells F3; type: cell-based; conditions: for IC50: 120 h, securin knock out F3 cells, 5 days, SRB; for Selectivity Ratio F3: IC50 HCT116 / IC50 securin KO F3
Description: as §1, §2, §3, §4, §5, §6

[4] = tested on: Xenografts of a Human Breast Carcinoma Cell Line (MDA-MB-361); assay: Tumor xenograft study versus Herceptin (Table 2); type: in vivo; conditions: 40 mg/kg/dose PO, days 1 through 20
Description: (§7) Selected fused bicyclic 2-aryl- or 2-heteroarylthiazolyl compounds of formula I were tested for their activity in a securin parental cell line (HCT116 FB) and a securin knockout (KO) cell line. […] The in-vivo activity of selected fused bicyclic 2-aryl- or 2-heteroarylthiazolyl compounds of formula I was studied in cells growing as xenografts in athymic (nude) mice. The effect of Examples 164, 166 and 167 was studied in xenografts of a human breast carcinoma cell line (MDA-MB-361).
(§8) In-vivo Activity in Tumor Xenografts. […] The fused bicyclic 2-arylthiazolyl compounds were formulated using 0.5% Methocel™ (methylcellulose) and 0.4% Tween 80™ (polysorbate-80 and oleic acid) and administered daily orally (PO), by gavage or by syringe. Tumor mass [(length×width^2)/2] was determined every 7 days. Inhibition of tumor growth was calculated relative to conventional (vehicle treated) controls.

[5] = tested on: Xenografts of a Human Breast Carcinoma Cell Line (MDA-MB-361); assay: Tumor xenograft study versus Vincristine (Table 3); type: in vivo
Description: as §7, §8
The effectiveness of Examples 164, 166 and 167 versus Vincristine at controlling tumor growth was studied and the results are summarized in Table 3 and FIG. 2.

[6] = 100 mg/kg/dose PO, BID, days 2 through 21
[7] = 100 mg/kg/dose PO, BID, days 2 through 21, BID vehicle group listed
[8] = 150 mg/kg/dose PO, days 2 through 21
[9] = 0.8 mg/kg/dose IP, days 2, 5 and 10

For `CN(C)c1ccc(-c2nc3c(s2)C(O)CCC3)c(C(=O)OCc2cccnc2)c1` (stereo not shown) [Example 126, pyridin-3-ylmethyl 5-(dimethylamino)-2-(7-hydroxy-4,5,6,7-tetrahydro-1,3-benzothiazol-2-yl)benzoate], the IC50 [1] was 100 µM, the IC50 [2] was 1.9 µM and the “Selectivity Ratio D8” value [2] was 54. The IC50 [3] was 2.5 µM and the “Selectivity Ratio F3” value [3] was 40.
In the case of `CCOc1cc2ncc(C#N)c(Nc3ccc(OCc4ccccn4)c(Cl)c3)c2cc1NC(=O)/C=C/CN(C)C` [HKI-272, reference compound], the “% T/C Day 7” value [4] is reported as 62%, the “% T/C Day 14” value [4] is reported as 89% and the “% T/C Day 21” value [4] is reported as 76%. The “Relative Tumor Growth Day 7” value [4] was 1.19, the “Relative Tumor Growth Day 14” value [4] was 2.86 and the “Relative Tumor Growth Day 21” value [4] was 8.03. For the same molecule, the “S/T = # of Survivors/# of Treated on Day +21” value [4] was 10/10.
`CC(=O)c1cc(N(C)C)ccc1-c1nc2c(s1)C(O)CCC2` (stereo not shown) [Example 74, 1-[5-(dimethylamino)-2-(7-hydroxy-4,5,6,7-tetrahydro-1,3-benzothiazol-2-yl)phenyl]ethanone] was tested, and the IC50 [1] was 100 µM, the IC50 [2] was 0.15 µM and the “Selectivity Ratio D8” value [2] was 650. For the same molecule, the IC50 [3] was 0.18 µM and the “Selectivity Ratio F3” value [3] was 558.
With `C[S+]([O-])c1cc(N2CCCC2)ccc1-c1nc2c(s1)C(O)CCC2` (stereo not shown) [Example 155, 2-[2-(Methylsulfinyl)-4-pyrrolidin-1-ylphenyl]-4,5,6,7-tetrahydro-1,3-benzothiazol-7-ol] the IC50 [1] was 38.8 µM, the IC50 [2] was 0.099 µM and the “Selectivity Ratio D8” value [2] was 390. The IC50 [3] was 0.17 µM and the “Selectivity Ratio F3” value [3] was 224.
`O=[N+]([O-])c1cc(N2CCCC2)ccc1-c1nc2c(s1)C(O)CCC2` (stereo not shown) [Example 151, 2-(2-nitro-4-pyrrolidin-1-ylphenyl)-4,5,6,7-tetrahydro-1,3-benzothiazol-7-ol] was tested, and the IC50 [1] was 38 µM, the IC50 [2] was 0.046 µM and the “Selectivity Ratio D8” value [2] was 832. The IC50 [3] was 0.053 µM and the “Selectivity Ratio F3” value [3] was 724.
`Cc1cc(N(C)C)ccc1-c1nc2c(s1)C(O)CCC2` (stereo not shown) [Example 45, 2-[4-(dimethylamino)-2-methylphenyl]-4,5,6,7-tetrahydro-1,3-benzothiazol-7-ol] was tested, and the IC50 [1] was 133 µM, the “selectivity ratios (IC50 HCT116 FB/IC50 securin KO)” value [2] was “high selectivity ratios” and the IC50 [2] was 0.54 µM. For the same molecule, the “Selectivity Ratio D8” value [2] was 245, the IC50 [3] was 1.1 µM and the “Selectivity Ratio F3” value [3] was 121.
`COc1cc(Nc2c(C#N)cnc3cc(OCCCN4CCN(C)CC4)c(OC)cc23)c(Cl)cc1Cl` [SKI-606 20] was tested, and the “Relative Tumor Growth Day 8” value [5, 6] was 1.97, the “Relative Tumor Growth Day 15” value [5, 6] was 2.44 and the “Relative Tumor Growth Day 22” value [5, 6] was 3.91. The “Relative Tumor Growth Day 29” value [5, 6] was 5.73, the “Relative Tumor Growth Day 36” value [5, 6] was 10.26 and the “S/T = # of Survivors/# of Treated on Day +36” value [5, 6] was 8/10. The “% T/C Day 8” value [5, 7] was 52%, the “% T/C Day 15” value [5, 7] was 27% and the “% T/C Day 22” value [5, 7] was 18%. The “% T/C Day 8” value [5, 8] was 40%, the “% T/C Day 15” value [5, 8] was 22% and the “% T/C Day 22” value [5, 8] was 16%. For the same molecule, the “Relative Tumor Growth Day 8” value [5, 8] was 2.09, the “Relative Tumor Growth Day 15” value [5, 8] was 2.77 and the “Relative Tumor Growth Day 22” value [5, 8] was 3.62. For the same molecule, the “Relative Tumor Growth Day 29” value [5, 8] was 7.22, the “Relative Tumor Growth Day 36” value [5, 8] was 10.19 and the “S/T = # of Survivors/# of Treated on Day +36” value [5, 8] was 10/10.
For `CC#CCOC(=O)c1cc(N(C)C)ccc1-c1nc2c(s1)C(O)CCC2` (stereo not shown) [Example 133, but-2-yn-1-yl 5-(dimethylamino)-2-(7-hydroxy-4,5,6,7-tetrahydro-1,3-benzothiazol-2-yl)benzoate], the IC50 [1] was 96.5 µM, the IC50 [2] was 1.1 µM and the “Selectivity Ratio D8” value [2] was 87. The IC50 [3] was 1.8 µM and the “Selectivity Ratio F3” value [3] was 54.
`C/C=C/COC(=O)c1cc(N(C)C)ccc1-c1nc2c(s1)C(O)CCC2` (stereo not shown) [Example 130, (2E)-but-2-en-1-yl 5-(dimethylamino)-2-(7-hydroxy-4,5,6,7-tetrahydro-1,3-benzothiazol-2-yl)benzoate] was tested, and the IC50 [1] was 77.6 µM, the IC50 [2] was 2 µM and the “Selectivity Ratio D8” value [2] was 38. The IC50 [3] was 2.4 µM and the “Selectivity Ratio F3” value [3] was 32.
`CN(C)c1cc(F)c(-c2nc3c(s2)C(O)CCC3)c(F)c1` (stereo not shown) [Example 25, 2-[4-(dimethylamino)-2,6-difluorophenyl]-4,5,6,7-tetrahydro-1,3-benzothiazol-7-ol] was tested, and the IC50 [1] was ≥ 161 µM, the IC50 [2] was 2.6 µM and the “Selectivity Ratio D8” value [2] was 62. For the same molecule, the IC50 [3] was 6.7 µM and the “Selectivity Ratio F3” value [3] was 24.
In the case of `CN(C)c1ccc(-c2nc3c(s2)C(O)CCC3)c(C(=O)OCc2ccsc2)c1` (stereo not shown) [Example 122, 3-thienylmethyl 5-(dimethylamino)-2-(7-hydroxy-4,5,6,7-tetrahydro-1,3-benzothiazol-2-yl)benzoate], the IC50 [1] is reported as 42.2 µM, the IC50 [2] is reported as 0.76 µM and the “Selectivity Ratio D8” value [2] is reported as 55. The IC50 [3] was 2.1 µM and the “Selectivity Ratio F3” value [3] was 20.
For `CC[C@]1(O)C[C@H]2CN(CCc3c([nH]c4ccccc34)[C@@](C(=O)OC)(c3cc4c(cc3OC)N(C=O)[C@H]3[C@@](O)(C(=O)OC)[C@H](OC(C)=O)[C@]5(CC)C=CCN6CC[C@]43[C@@H]65)C2)C1` [Vincristine, reference compound], the “% T/C Day 8” value [5, 9] was 33%, the “% T/C Day 15” value [5, 9] was 23% and the “% T/C Day 22” value [5, 9] was 30%. For the same molecule, the “Relative Tumor Growth Day 8” value [5, 9] was 1.75, the “Relative Tumor Growth Day 15” value [5, 9] was 2.84 and the “Relative Tumor Growth Day 22” value [5, 9] was 6.71. For the same molecule, the “Relative Tumor Growth Day 29” value [5, 9] was 11.47.
For `CCOc1cc2ncc(C#N)c(Nc3ccc(F)c(Cl)c3)c2cc1NC(=O)/C=C/CN(C)C` [EKB-569], the “% T/C Day 7” value [4] was 66%, the “% T/C Day 14” value [4] was 80% and the “% T/C Day 21” value [4] was 78%. For the same molecule, the “Relative Tumor Growth Day 7” value [4] was 1.28, the “Relative Tumor Growth Day 14” value [4] was 2.57 and the “Relative Tumor Growth Day 21” value [4] was 8.24. The “S/T = # of Survivors/# of Treated on Day +21” value [4] was 10/10.
